# Columns and labels:
# Human 11β-HSD1 = Human 11β-HSD1 (Homo sapiens, UniProt P28845); assay: Evaluation of compound against human 11β-HSD1 (HTRF cortisol assay); format: biochemical; settings: substrate cortisone 5 μM, 37° C. for 2 hours, HTRF method
# Procedure: (§1) After preincubating an inhibitor in a reaction solution consisting of 50 mM sodium phosphate buffer (pH 7.6), bovine serum albumin (1 mg/mL), NADPH (0.42 mg/mL), glucose-6-phosphate (1.26 mg/mL), glucose-6-phosphate dehydrogenase and an enzyme at room temperature for 30 minutes, cortisone (5 μM) which is a substrate was added (total amount 10 μL). After reacting at 37° C. for 2 hours, an XL-665-labeled cortisol solution (5 μL), and a Cryptate-labeled anti-cortisol antibody solution (5 μL) were added, a reaction was performed at room temperature for 2 hours, and fluorescence intensity (HTRF method) was measured. A cortisol concentration was measured from a standard curve prepared using a known concentration of cortisol for each assay.
# (§2) Taking a concentration of cortisol generated in the absence of the inhibitor as a control value, 50% inhibition concentration (IC50 value) of the inhibitor against 11β-HSD1 was calculated from an inhibition curve plotting inhibition rate against the control value at each concentration of an inhibitor.
# Mouse 11β-HSD1 = Mouse 11β-HSD1 (Mus musculus, UniProt P50172); assay: Evaluation of compound against mouse 11β-HSD1 (HTRF corticosterone assay); format: biochemical; settings: substrate 11-dehydrocorticosterone 2 μM, 37° C. for 2 hours, HTRF method
# Procedure: as §1, with “dehydrogenase,” for “dehydrogenase”, “11-dehydrocorticosterone (2” for “cortisone (5”, “measured.” for “measured. A cortisol concentration was measured from a standard curve prepared using a known concentration of cortisol for each assay.”
# A corticosterone concentration was measured from a standard curve prepared using a known concentration of corticosterone for each assay.
# as §2, with “of corticosterone” for “of cortisol”, “of the” for “of an”
# Human 11β-HSD1, sequence (P28845 whole entry): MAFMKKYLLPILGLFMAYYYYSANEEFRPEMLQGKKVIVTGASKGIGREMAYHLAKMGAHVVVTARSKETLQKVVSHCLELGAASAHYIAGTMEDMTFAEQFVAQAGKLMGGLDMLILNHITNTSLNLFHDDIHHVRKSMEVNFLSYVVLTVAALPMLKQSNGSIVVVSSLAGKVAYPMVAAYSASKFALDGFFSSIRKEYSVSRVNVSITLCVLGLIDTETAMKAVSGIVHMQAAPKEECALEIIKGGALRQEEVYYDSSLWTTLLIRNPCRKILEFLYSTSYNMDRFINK
# Mouse 11β-HSD1, sequence (P50172 whole entry): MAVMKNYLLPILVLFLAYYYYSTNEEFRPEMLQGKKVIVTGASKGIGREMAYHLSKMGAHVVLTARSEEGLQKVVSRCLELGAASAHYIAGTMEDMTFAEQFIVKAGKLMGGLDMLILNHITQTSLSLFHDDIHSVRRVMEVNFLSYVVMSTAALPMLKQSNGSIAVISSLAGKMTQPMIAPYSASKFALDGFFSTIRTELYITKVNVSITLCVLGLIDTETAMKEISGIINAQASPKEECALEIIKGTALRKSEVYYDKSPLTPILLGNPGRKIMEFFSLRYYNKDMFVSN
structure (smiles),measurement,setting,value
CCN(C[C@@H]1CN(C2CCCCCCC2)C(=O)O1)S(=O)(=O)c1ccccc1 [Compound I-21],IC50,Human 11β-HSD1,0.43 µM
same,IC50,Mouse 11β-HSD1,8.4 µM
